The assay has as its target T1, Vitamin D3 receptor (Homo sapiens, UniProt P11473).
T1 sequence (P11473 whole entry): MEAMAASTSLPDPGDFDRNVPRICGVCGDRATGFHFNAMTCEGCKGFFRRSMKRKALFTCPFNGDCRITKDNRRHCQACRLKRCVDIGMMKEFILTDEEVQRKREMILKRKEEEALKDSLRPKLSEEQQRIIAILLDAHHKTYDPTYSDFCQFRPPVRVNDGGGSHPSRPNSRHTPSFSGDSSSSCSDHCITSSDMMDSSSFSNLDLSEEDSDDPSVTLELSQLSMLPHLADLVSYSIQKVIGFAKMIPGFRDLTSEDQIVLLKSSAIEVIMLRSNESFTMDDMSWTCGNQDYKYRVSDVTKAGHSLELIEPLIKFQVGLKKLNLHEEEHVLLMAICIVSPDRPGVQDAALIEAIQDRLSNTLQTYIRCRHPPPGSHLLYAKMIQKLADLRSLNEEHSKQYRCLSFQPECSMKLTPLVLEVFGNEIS
The assay is described as follows: Displacement of [3H]1alpha,25-dihydroxyvitamin D3 from human recombinant GST-tagged vitamin D3 receptor LBD expressed in Escherichia coli BL21 after 16 hrs. On the technique in general: Loss of bound radioactivity is the signal in a displacement assay; it reports binding, not function.

Each structure is given as a SMILES string.

For `C=C1[C@H](O)CC(=C/C=C2\CCC[C@]3(C)[C@@H]([C@H](C)[C@@H](CC)CC(O)(CC)CC)CC[C@@H]23)C[C@H]1O`, the IC50 (in general, the concentration that inhibits the measured activity by half) came out at 0.38 nM.

The record behind these values is ChEMBL document CHEMBL2057157, “Butyl pocket formation in the vitamin D receptor strongly affects the agonistic or antagonistic behavior of ligands” (J Med Chem, 2012).
